{
  "source": "patent US20100233231A1",
  "about": "“USE OF CRYOGENIC PROCESSING TO OBTAIN A SUBSTANTIALLY-THICKENED FORMULATION” (priority 2009, published 2010)",
  "experiment": "Consistency and homogeneity of the formulation after cryo-processing (observation)",
  "assay_type": "physicochemical",
  "details": "8 cycles",
  "experimental": "Fish oil was cured to a film with the use of heat.\nIt was processed in a Spex Certiprep cryogrinder for 8 cycles, each cycle lasting 2.0 minutes and with a 2.0 minute between-cycle cool down to maintain the system at cryogenic temperatures.",
  "data": [
    {"molecule": "CCCCCCCCCCCCCCCCO", "note": "[Cetyl Alcohol]", "values": [
      {"measurement": "consistency of resulting formulation", "setting": "Example 7: 30% in 70% fish oil 30% Vitamin E, 30 impacts per second", "result": "highly viscous and smooth"}
    ]},
    {"molecule": "O=C(CO)[C@@H](O)[C@H](O)[C@H](O)CO", "note": "[Fructose]", "values": [
      {"measurement": "consistency of resulting formulation", "setting": "Example 5: 40% in 100% fish oil, 20 impacts per second", "result": "highly viscous upon standing and was extremely shear thinning"}
    ]},
    {"molecule": "CO[C@H]1C[C@@H]2CC[C@@H](C)[C@@](O)(O2)C(=O)C(=O)N2CCCC[C@H]2C(=O)O[C@H]([C@H](C)C[C@@H]2CC[C@@H](O)[C@H](OC)C2)CC[C@H](C)/C=C(\\C)[C@@H](O)[C@@H](OC)C(=O)[C@H](C)C[C@H](C)/C=C/C=C/C=C/1C", "note": "[Rapamycin derivative]", "values": [
      {"measurement": "consistency of resulting formulation", "setting": "Example 2: 31% in 70% fish oil 30% vitamin E, 20 impacts per second", "result": "highly viscous and shear thinning with small crystals evident throughout the sample"}
    ]}
  ]
}
